Data taken from ChEMBL document CHEMBL2176892, “Conjugation of quinones with natural polyamines: toward an expanded antitrypanosomatid profile” (J Med Chem, 2012).
Activity calls are given as the source filed them. No cut-off for these calls is given here.

Legend:
[1] = molecular target: Trypanothione reductase (Trypanosoma brucei brucei) (UniProt P39051); experiment: Induction of intrinsic oxidase activity of Trypanosoma brucei TR at 5 uM
[2] = Selectivity index, ratio of IC50 for rat L6 cells to IC50 for promastigote form of Leishmania donovani strain MHOM/SD/00/1S-2D; format: toxicity, cell-based; details: read-out: Ratio IC50
Leishmania donovani [3] = experiment: Antitrypanosomal activity against promastigote form of Leishmania donovani MHOM/SD/00/1S-2D assessed as growth inhibition after 72 hrs by inverted microscopy; format: functional, organism-based
[4] = Selectivity index, ratio of IC50 for rat L6 cells to IC50 for axenic amastigote form of Leishmania donovani strain MHOM-ET-67/L82; format: toxicity, cell-based; details: read-out: Ratio IC50
Trypanosoma cruzi = experiment: Antitrypanosomal activity against intracellular amastigote form of Trypanosoma cruzi Tulahuen C2C4 infected in rat L6 cells assessed as growth inhibition after 92 hrs by inverted microscopy; format: functional, organism-based; details: Tulahuen C2C4, L6, 92 h
L6 = experiment: Cytotoxicity against rat L6 cells assessed as growth inhibition after 72 hrs by inverted microscopy; format: cell-based; details: L6, 72 h
Leishmania donovani [5] = experiment: Antitrypanosomal activity against axenic amastigote form of Leishmania donovani MHOM-ET-67/L82 assessed as growth inhibition after 72 hrs by inverted microscopy; format: functional, organism-based; details: MHOM-ET-67/L82, 72 h
[6] = Selectivity index, ratio of IC50 for rat L6 cells to IC50 for trypomastigote form of Trypanosoma brucei rhodesiense strain STIB 900; format: toxicity, cell-based; details: read-out: Ratio IC50
[7] = tested on: Trypanosoma brucei rhodesiense; experiment: Antitrypanosomal activity against trypomastigote form of Trypanosoma brucei rhodesiense STIB 900 assessed as growth inhibition after 72 hrs by microplate fluorometry; format: functional, organism-based; details: STIB 900, 72 h
[8] = Selectivity index, ratio of IC50 for rat L6 cells to IC50 for intracellular amastigote form of Trypanosoma cruzi Tulahuen strain C2C4; format: toxicity, cell-based; details: read-out: Ratio IC50
[9] = molecular target: Trypanothione reductase (Trypanosoma brucei brucei) (UniProt P39051); experiment: Inhibition of Trypanosoma brucei TR using 40 to 100 uM trypanothione disulfide assessed as remaining activity at 5 uM
Leishmania donovani [10] = experiment: Reduction in free cytoplasmic ATP level in promastigote form of Leishmania donovani 3-Luc at 2.5 to 25 uM after 15 to 20 mins by luminescence assay; format: functional, organism-based
Leishmania donovani [11] = experiment: Induction of morphological damage in promastigote form of Leishmania donovani MHOM/ET/67/L82 assessed as accumulation of vesicular material inside the flagellar pocket at 5 uM after 4 hrs by transmission electron microscopy; format: functional, organism-based
Trypanothione reductase [12] = molecular target: T1, Trypanothione reductase (Trypanosoma brucei brucei, UniProt P39051); experiment: Mixed type inhibition of Trypanosoma brucei TR using varying levels of trypanothione disulfide assessed as inhibition constant for enzyme-inhibitor complex by Lineweaver-Burk plot
Trypanothione reductase [13] = molecular target: T1, Trypanothione reductase; experiment: Noncompetitive inhibition of Trypanosoma brucei TR using varying levels of trypanothione disulfide by Lineweaver-Burk plot
Trypanothione reductase [14] = molecular target: T1, Trypanothione reductase; experiment: Mixed type inhibition of Trypanosoma brucei TR using varying levels of trypanothione disulfide assessed as inhibition constant for enzyme-substrate-inhibitor complex by Lineweaver-Burk plot
Leishmania donovani [15] = experiment: Reduction in mitochondrial electrochemical potential in promastigote form of Leishmania donovani MHOM/ET/67/L82 assessed as reduction in Rhodamine 123 fluorescence at 25 uM after 4 hrs by flow cytometry; format: functional, organism-based
Leishmania donovani [16] = experiment: Induction of morphological damage in promastigote form of Leishmania donovani MHOM/ET/67/L82 assessed as mitochondrial swelling at 5 uM after 4 hrs by transmission electron microscopy; format: functional, organism-based

Trypanothione reductase (Trypanosoma brucei brucei), sequence (P39051 whole entry, looked up): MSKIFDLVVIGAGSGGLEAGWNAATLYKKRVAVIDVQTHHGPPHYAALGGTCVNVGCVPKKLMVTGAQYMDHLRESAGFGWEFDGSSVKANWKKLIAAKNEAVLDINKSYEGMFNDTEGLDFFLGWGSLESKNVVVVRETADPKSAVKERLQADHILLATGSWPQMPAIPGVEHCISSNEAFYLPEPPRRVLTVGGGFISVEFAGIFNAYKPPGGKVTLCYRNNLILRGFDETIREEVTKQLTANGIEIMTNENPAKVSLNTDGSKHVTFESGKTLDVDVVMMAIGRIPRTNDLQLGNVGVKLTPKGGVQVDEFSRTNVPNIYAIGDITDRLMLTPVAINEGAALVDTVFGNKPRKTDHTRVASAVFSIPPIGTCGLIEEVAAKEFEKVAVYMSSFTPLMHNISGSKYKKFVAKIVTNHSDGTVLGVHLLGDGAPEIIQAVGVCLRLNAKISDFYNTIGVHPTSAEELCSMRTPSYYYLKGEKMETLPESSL
T1 sequence (P39051 whole entry): as the sequence (P39051 whole entry, looked up) above

SMILES	Activity [1]	selectivity ratio [2]	IC50 (Leishmania donovani [3])	selectivity ratio [4]	IC50 (Trypanosoma cruzi)	IC50 (L6)	IC50 (Leishmania donovani [5])	selectivity ratio [6]	IC50 [7]	selectivity ratio [8]	Activity [9]	Activity (Leishmania donovani [10])	Activity (Leishmania donovani [11])	Ki (Trypanothione reductase [12])	Ki (Trypanothione reductase [13])	Ki (Trypanothione reductase [14])	Activity (Leishmania donovani [15])	Activity (Leishmania donovani [16])
NCCCCNCc1ccc(OC2=CC(=O)c3cc4ccccc4cc3C2=O)cc1	inactive	1.56	3.59 µM	1.98	18.6 µM	5.6 µM	2.82 µM	16	0.35 µM	0.3	36%	–	–	–	–	–	–	–
NCCCCNCc1ccc(OC2=CC(=O)c3ccccc3C2=O)cc1	–	1.27	8.72 µM	1.63	30 µM	11.1 µM	6.81 µM	50.5	0.22 µM	0.37	–	–	–	–	–	–	–	–
NCCCNCCCNCCCNCc1ccc(OC2=CC(=O)c3cc4ccccc4cc3C2=O)cc1	–	0.53	9.08 µM	2.03	17.4 µM	4.87 µM	2.4 µM	20.3	0.24 µM	0.29	–	–	–	–	–	–	–	–
Nc1nc(N)nc(Nc2ccc([As]3SCC(CO)S3)cc2)n1 (stereo unspecified) [MELARSOPROL]	–	–	–	–	–	18.3 µM	–	1830	–	–	–	–	–	–	–	–	–	–
O=C1C=C(Oc2ccccc2)C(=O)c2ccccc21	–	8	0.74 µM	4.7	1.26 µM	–	–	74	–	4.7	51%	–	–	–	–	–	–	–
NCCCNCCCNCCCNCc1ccc(OC2=CC(=O)c3ccccc3C2=O)cc1	–	< 0.21	> 30 µM	0.89	18.8 µM	6.46 µM	7.27 µM	14	0.46 µM	0.34	–	–	–	–	–	–	–	–
NCCCNCCCCNCCCNCc1ccc(OC2=CC(=O)c3cc4ccccc4cc3C2=O)cc1	–	0.45	16.1 µM	2.15	34.8 µM	7.21 µM	3.35 µM	22.5	0.32 µM	0.21	–	–	–	–	–	–	–	–
CCCCCCCCCCCCCCCCOP(=O)([O-])OCC[N+](C)(C)C [MILTEFOSINE]	–	–	–	462	–	143 µM	–	–	–	–	–	–	–	–	–	–	–	–
NCCCCCNCc1ccc(OC2=CC(=O)c3cc4ccccc4cc3C2=O)cc1	inactive	1.39	3.62 µM	2.06	17.4 µM	5.04 µM	2.44 µM	72	0.07 µM	0.29	36%	Dose-dependent effect	Active	3.4 µM	3.4 µM	3.9 µM	Active	–
O=C(Cn1ccnc1[N+](=O)[O-])NCc1ccccc1 [BENZNIDAZOLE]	–	–	–	–	–	> 384 µM	–	–	–	–	–	–	–	–	–	–	–	–
NCCCNCCCCNCc1ccc(OC2=CC(=O)c3ccccc3C2=O)cc1	–	< 0.31	> 30 µM	1.28	52.2 µM	9.18 µM	7.17 µM	12.8	0.72 µM	0.18	–	–	–	–	–	–	–	–
NCCCNCCCCNCc1ccc(OC2=CC(=O)c3cc4ccccc4cc3C2=O)cc1	inactive	0.41	15.4 µM	2.01	39.4 µM	6.29 µM	3.13 µM	27.4	0.23 µM	0.16	36%	–	–	–	–	–	–	–
NCCCNCCCCNCCCNCc1ccc(OC2=CC(=O)c3ccccc3C2=O)cc1	Active	< 0.23	> 30 µM	1.22	24.1 µM	7.05 µM	5.79 µM	15.7	0.45 µM	0.29	36%	–	–	–	–	–	–	–
O=C1C=C(Oc2ccccc2)C(=O)c2cc3ccccc3cc21	–	0.35	2.81 µM	2.91	4.66 µM	–	–	19.8	–	0.21	51%	Dose-dependent effect	–	–	–	–	Active	Active
NCCCCCNCc1ccc(OC2=CC(=O)c3ccccc3C2=O)cc1	Active	1.18	7.72 µM	1.37	20 µM	9.1 µM	6.63 µM	35	0.26 µM	0.45	36%	–	–	2.8 µM	–	4.6 µM	–	–
COc1cc([C@@H]2c3cc4c(cc3[C@H](O)[C@H]3COC(=O)[C@H]23)OCO4)cc(OC)c1OC [PODOFILOX]	–	–	–	–	–	0.0017 µM	–	–	–	–	–	–	–	–	–	–	–	–
